Experimental findings from patent publication US8835461B2, “Substituted 3-hydroxy-4-pyridone derivative” (priority 2009, dated 2014) are described below.

Read-outs that look alike come from different tables or passages of the source.

For this experiment, the target named is Cap-dependent endonuclease (CEN); RNP fraction containing PB1•PB2•PA complex (Influenza A virus, UniProt P15659). The experiment is described as follows: Measurement of cap-dependent endonuclease (CEN) inhibitory activity. The format is biochemical, influenza A/WSN/33 virus.
Setting [1] is: RNP enzyme from A/WSN/33 virus, capped Cy3/BHQ2-labelled 30mer RNA substrate, 60 minutes at room temperature, read-out: CEN IC50.
Where [2] appears, read: statement in text following Table 36, same CEN assay, read-out: IC50 (CEN).

Consider `O=C(O)c1cn(Cc2ccccc2-c2ccccc2)cc(O)c1=O` [Example 10], for which, under setting [1], the IC50 (commonly the concentration at which inhibition is half-maximal) came to 219 nM.
For the compound `O=C(O)c1cn(CC2CCCC2)cc(O)c1=O` [Example 18], the IC50 under setting [1] came out at 845 nM.
For the compound `CC(=O)c1ccc(-c2ccccc2Cn2cc(O)c(=O)c(C(=O)O)c2)cc1` [Example 22], the half-inhibitory concentration (IC50) under setting [1] was 217 nM.
Turning to `COc1ncc(-c2ccccc2Cn2cc(O)c(=O)c(C(=O)O)c2)cn1` [Example 46], the half-inhibitory concentration (IC50) under setting [1] came out at 325 nM.
As to `O=C(O)c1cn(Cc2ccccc2-c2ccc(NCC3CCCCC3)nc2)cc(O)c1=O` [Example 52], the IC50 under setting [1] came to 459 nM.
For the compound `O=C(O)c1cn(C[C@@H]2CCCN2c2ccccc2)cc(O)c1=O` [Example 57], under setting [1], the IC50 was 426 nM.
As for `O=C(O)c1cn(CC2(c3ccccc3)CCCC2)cc(O)c1=O` [Example 112], the IC50 under setting [1] came out at 61 nM.
In the case of `N#Cc1ccccc1CN1CCCCC1Cn1cc(O)c(=O)c(C(=O)O)c1` (stereo not drawn) [Example 116], the IC50 under setting [1] came to 221 nM.
On to `O=C(O)c1cn(CC2CCCCN2C(=O)OCc2ccccc2F)cc(O)c1=O` (stereo not drawn) [Example 127], for which the IC50 under setting [1] came out at 313 nM.
Still for that read-out and setting: next, `O=C(O)c1cn(CC2(c3cccc(C(F)(F)F)c3)CCCC2)cc(O)c1=O` [Example 167]: 12 nM; `O=C(O)c1cn(CC2(c3ccc4c(c3)OCO4)CCCC2)cc(O)c1=O` [Example 171]: 16 nM; `O=C(O)c1cn(CC2(c3nc4ccccc4s3)CCCC2)cc(O)c1=O` [Example 173]: 47 nM.
The same measure, in the same setting: next, `O=C(O)c1cn(CC2(c3ccccn3)CCCC2)cc(O)c1=O` [Example 177]: 110 nM; `O=C(O)c1cn(CC2(c3cccc4ccccc34)CCCC2)cc(O)c1=O` [Example 178]: 28 nM; `O=C(O)c1cn(CC2(c3ccccc3)Cc3ccccc3C2)cc(O)c1=O` [Example 182]: 278 nM.
On to `O=C(O)c1cn(CC2(c3ccccc3)CCOCC2)cc(O)c1=O` [Example 183], for which the IC50 under setting [1] is 177 nM.
Consider `O=C(O)c1cn(CC2(n3ccc4cccnc43)CCCC2)cc(O)c1=O` [Example 185], for which the concentration for half-maximal inhibition (IC50) under setting [1] turned out to be 5 nM.
`O=C(O)c1cn(CC2(n3ccc4ccccc43)CCCC2)cc(O)c1=O` [Example 186]: the IC50 under setting [1] came out at 35 nM.
As to `O=C(NS(=O)(=O)C1CC1)c1cn(Cc2ccccc2-c2ccccc2)cc(O)c1=O` [Example 195], the 50% inhibitory concentration (IC50) under setting [1] turned out to be 677 nM.
For `CCCCS(=O)(=O)NC(=O)c1cn(Cc2ccccc2-c2ccccc2)cc(O)c1=O` [Example 197], under setting [1], the IC50 is 531 nM.
As for `O=c1c(O)cn(Cc2ccccc2-c2ccc(F)c(Cl)c2)cc1O` [Example 222], the IC50 under setting [1] was found to be 513 nM.
`O=C(O)c1cn(Cc2cccn2-c2ccccc2)cc(O)c1=O` [Example 226]: the concentration for half-maximal inhibition (IC50) under setting [2] was ≤ 1000 nM.
Still for that read-out and setting: then `CC(C)(Cn1cc(O)c(=O)c(C(=O)O)c1)c1ccccc1` [Example 227], with ≤ 1000 nM; and `O=C(O)c1cn(CC2(C(=O)c3ccccc3)CCCC2)cc(O)c1=O` [Example 231], with ≤ 1000 nM.
As to `O=C(O)c1cn(CC2(C(=O)Nc3ccccc3)CCCC2)cc(O)c1=O` [Example 232], under setting [2], the 50% inhibitory concentration (IC50) is ≤ 1000 nM.
The same measure, in the same setting: then `O=c1c(O)cn(CC2(c3cccc(F)c3)CCCC2)cc1-c1nnn[nH]1` [Example 233], with ≤ 1000 nM; and `O=C(O)c1cn(CC2(c3cccc(N4CCCC4=O)c3)CCCC2)cc(O)c1=O` [Example 234], with ≤ 1000 nM; and `O=C(O)c1cn(CC2(c3cccc(N4CCCCC4=O)c3)CCCC2)cc(O)c1=O` [Example 235], with ≤ 1000 nM.
Regarding `O=C(O)c1cn(CC2(c3cccc(N4CCCS4(=O)=O)c3)CCCC2)cc(O)c1=O` [Example 236], the IC50 under setting [2] was ≤ 1000 nM.
Turning to `O=C(O)c1cn(CC2(c3ccnc(-n4cccn4)c3)CCCC2)cc(O)c1=O` [Example 238], the IC50 under setting [2] was ≤ 1000 nM.
For the compound `O=C(O)c1cn(CC2(c3ccnc(NCC4CCCCC4)c3)CCCC2)cc(O)c1=O` [Example 239], under setting [2], the 50% inhibitory concentration (IC50) was ≤ 1000 nM.
In the case of `O=C(O)c1cn(CC2(n3ccc4cc(Cl)cnc43)CCCC2)cc(O)c1=O` [Example 240], under setting [2], the concentration for half-maximal inhibition (IC50) was ≤ 1000 nM.
On the same count and under the same terms, then `Cn1cc(C2(Cn3cc(O)c(=O)c(C(=O)O)c3)CCCC2)c2ncccc21` [Example 242], with ≤ 1000 nM; and `O=C(O)c1cn(CC2(n3cc(C(F)(F)F)c4cccnc43)CCCC2)cc(O)c1=O` [Example 243], with ≤ 1000 nM.
Take `Cn1cc(C2(Cn3cc(O)c(=O)c(C(=O)O)c3)CCCC2)c2ccccc21` [Example 244]: the 50% inhibitory concentration (IC50) under setting [2] is ≤ 1000 nM.
The same measure, in the same setting: next, `Cn1cc(C2(Cn3cc(O)c(=O)c(C(=O)NS(C)(=O)=O)c3)CCCC2)c2ccccc21` [Example 246]: ≤ 1000 nM.
